The NIST ThermoML archive (doi:10.1016/j.jct.2011.01.010)
± gives the expanded uncertainty stated by the source.

Assay: osmotic coefficient (dimensionless); mn = molality of the nth substance listed, in mol/kg
Conditions: 323.15 K, Liquid, vapor pressure osmometry

CCCO [propan-1-ol] + COS(=O)(=O)[O-].Cc1ccc[n+](C)c1
Conditions | osmotic coefficient
m1 = 0.0785 | 0.885 ± 0.013
m1 = 0.0971 | 0.803 ± 0.015
m1 = 0.2088 | 0.711 ± 0.016
m1 = 0.3089 | 0.671 ± 0.017
m1 = 0.4144 | 0.658 ± 0.017
m1 = 0.5126 | 0.642 ± 0.017
m1 = 0.8126 | 0.609 ± 0.018
m1 = 1.104 | 0.576 ± 0.019
m1 = 1.401 | 0.548 ± 0.02
m1 = 1.691 | 0.533 ± 0.02
m1 = 2.219 | 0.508 ± 0.021
m1 = 2.721 | 0.494 ± 0.022
m1 = 3.211 | 0.478 ± 0.022

CCCCO [butan-1-ol] + COS(=O)(=O)[O-].Cc1ccc[n+](C)c1
Conditions | osmotic coefficient
m1 = 0.0259 | 0.824 ± 0.014
m1 = 0.0466 | 0.746 ± 0.015
m1 = 0.1056 | 0.668 ± 0.017
m1 = 0.2078 | 0.601 ± 0.019
m1 = 0.3112 | 0.528 ± 0.021
m1 = 0.4005 | 0.501 ± 0.021
m1 = 0.5132 | 0.469 ± 0.022
m1 = 0.9858 | 0.425 ± 0.024
m1 = 1.282 | 0.406 ± 0.024
m1 = 1.685 | 0.394 ± 0.025
m1 = 2.078 | 0.387 ± 0.025
m1 = 2.497 | 0.375 ± 0.025
m1 = 2.911 | 0.368 ± 0.025

CC(C)O [propan-2-ol] + COS(=O)(=O)[O-].Cc1ccc[n+](C)c1
Conditions | osmotic coefficient
m1 = 0.072 | 0.969 ± 0.012
m1 = 0.1185 | 0.873 ± 0.013
m1 = 0.2149 | 0.767 ± 0.015
m1 = 0.3087 | 0.699 ± 0.016
m1 = 0.408 | 0.654 ± 0.017
m1 = 0.5005 | 0.628 ± 0.018
m1 = 0.7082 | 0.57 ± 0.019
m1 = 1.013 | 0.532 ± 0.02
m1 = 1.296 | 0.51 ± 0.021
m1 = 1.72 | 0.49 ± 0.022
m1 = 2.095 | 0.468 ± 0.022
m1 = 2.494 | 0.46 ± 0.023
m1 = 2.956 | 0.436 ± 0.023
m1 = 3.326 | 0.419 ± 0.024

CCC(C)O (centres undefined) [butan-2-ol] + COS(=O)(=O)[O-].Cc1ccc[n+](C)c1
Conditions | osmotic coefficient
m1 = 0.0458 | 0.818 ± 0.014
m1 = 0.0728 | 0.729 ± 0.016
m1 = 0.0933 | 0.696 ± 0.016
m1 = 0.2019 | 0.605 ± 0.018
m1 = 0.3113 | 0.547 ± 0.02
m1 = 0.3991 | 0.512 ± 0.021
m1 = 0.4981 | 0.474 ± 0.022
m1 = 0.6846 | 0.441 ± 0.023
m1 = 0.9815 | 0.408 ± 0.024
m1 = 1.285 | 0.383 ± 0.025
m1 = 1.687 | 0.361 ± 0.026
m1 = 2.105 | 0.345 ± 0.026
m1 = 2.501 | 0.333 ± 0.026
m1 = 2.914 | 0.327 ± 0.027
m1 = 3.291 | 0.32 ± 0.027

CCCCCO [pentan-1-ol] + COS(=O)(=O)[O-].Cc1ccc[n+](C)c1
Conditions | osmotic coefficient
m1 = 0.0303 | 0.77 ± 0.015
m1 = 0.0543 | 0.677 ± 0.017
m1 = 0.0875 | 0.618 ± 0.018
m1 = 0.1103 | 0.584 ± 0.019
m1 = 0.2153 | 0.505 ± 0.021
m1 = 0.3078 | 0.464 ± 0.022
m1 = 0.412 | 0.425 ± 0.024
m1 = 0.5092 | 0.401 ± 0.024
m1 = 0.8077 | 0.372 ± 0.025
m1 = 1.106 | 0.352 ± 0.026
m1 = 1.71 | 0.33 ± 0.027
m1 = 2.229 | 0.315 ± 0.027
m1 = 2.726 | 0.308 ± 0.027
m1 = 3.198 | 0.3 ± 0.028
